Laboratory results published in patent US6797861B2, “Seed shattering” (Bayer BioScience NV, priority 1995, dated 2004).

Columns and labels:
Type in all cases: in vivo, Brassica napus
[1] = system: pods (8% moisture) of oilseed rape cv Fido; experiment: Cantilever bending test of pod opening force; settings: plants sprayed
Description: (§1) Brassica napus cv Fido plants were grown in an unheated greenhouse. At 12 days after germination plants were transferred to, and further grown in, 1000 cm^3 compost. Pods were collected at one week intervals from two to eight weeks after anthesis. The pods were taken from the base of the terminal one of the first three axillary racemes. The pods were separated into dehiscence zone, pod wall and seeds.
In a further experiment ethylene production was inhibited by treating the pods with aminoethoxyvinylglycine (AVG), a competitive inhibitor of the enzyme ACC-synthase. AVG was applied 28 days after anthesis at 500 mg/l. […] Decreased endogenous ACC concentrations in both dehiscence zone and seeds of the treated pods correlated with the reduced ethylene production. […] A decrease in endogenous IAA content in the dehiscence zone preceding pod opening was also observed in these experiments both in control and in AVG-treated plants. […]
3) changes in the mechanical properties of the DZ and their seed shatter resistance by analysing the shatter resistance of individual pods. […] In yet another procedure, susceptibility to crack propagation is determined by friction measurement. In this case, the force generated due to friction between a wedge forced along the DZ is recorded and enables comparison of DZ tissues in selected, extreme examples of resistance.

[2] = system: endogenous ACC and IAA in pod tissues; experiment: Endogenous phytohormone (ACC, IAA) concentrations in pod tissues; settings: spray at 150 mg/l, 35 days after anthesis
Description: as §1
The samples were grinded with a mortar and pestle and then extracted for 16 hours at −20 C. in a total volume of 80% methanol. Purification and analysis of phytohormones was carried out essentially as described [Bialek and Cohen (1989), Plant Physiol. 90: 398; Prinsen et al. (1991), in: A Laboratory Guide for Cellular and Molecular Plant Biology. Ed. Negrutiu and Gharti-Chhetri. Birkhäuser Verlag, Basel/Boston/Berlin pp.175-185, pp.323-324; Chauvaux et al. (1993), J. Chromatogr. A 657: 337].
Different parts of the pods (pod wall, dehiscence zone and seeds) were screened for endogenous concentrations of the ethylene precursor 1-aminocyclopropane-1-carboxylic acid (ACC) and conjugates thereof as well as for indole-3-acetic acid (IAA) and conjugates thereof.
In a further experiment ethylene production was inhibited by treating the pods with aminoethoxyvinylglycine (AVG), a competitive inhibitor of the enzyme ACC-synthase. AVG was applied 28 days after anthesis at 500 mg/l. […]

Beta-Glucanase = experiment: Beta-glucanase activity in the dehiscence zone; settings: spray at 150 mg/l, 35 days after anthesis
Description: (§2) To examine the auxin involvement in pod shattering, the synthetic auxin 4-chlorophenoxyacetic acid (4CPA) was used to manipulate auxin levels. 4CPA was applied 35 days after anthesis as a spray at 150 mg/l in order to artificially keep auxin concentration at a high level during the entire period. […] No effect was observed on the endogenous phytohormone concentrations.

[3] = system: pods of oilseed rape cv Fido; experiment: Pod wall senescence and pod shatter tendency of treated plants; settings: spray at 150 mg/l, 35 days after anthesis
Description: as §1
In a further experiment ethylene production was inhibited by treating the pods with aminoethoxyvinylglycine (AVG), a competitive inhibitor of the enzyme ACC-synthase. AVG was applied 28 days after anthesis at 500 mg/l. […] Decreased endogenous ACC concentrations in both dehiscence zone and seeds of the treated pods correlated with the reduced ethylene production. […] A decrease in endogenous IAA content in the dehiscence zone preceding pod opening was also observed in these experiments both in control and in AVG-treated plants.
as §2

O=C(O)COc1ccc(Cl)cc1 [4CPA, 4-chlorophenoxyacetic acid]
Force needed to initiate crack (pod opening) [1]: 194.9 10^−3N | Force needed to propagate crack (pod opening) [1]: 222.6 10^−3N | effect on endogenous phytohormone concentrations [2]: No effect | Beta-Glucanase activity in the dehiscence zone (Beta-Glucanase): markedly decreased | delay of pod wall senescence [3]: about two | pod shatter tendency [3]: distinct retardation
